According to ChEMBL document CHEMBL1201862, “PubChem BioAssay data set” (2004):
Activity calls are given as the source filed them.

Key:
[1] = target: FAD-linked sulfhydryl oxidase ALR (Homo sapiens, UniProt P55789); test: ALR-catalysed DTT oxidation blockers – biochemical, H2O2 detection, luminescence, cherry-pick, dose response (AID 493248)
[2] = off-target signal loss in HeLa-CEM21 co-culture – HeLa F-luc CTL cells, cherry-picked, counter-screen for HIV-1 Env fusion inhibitor project, dose response (AID 652040); type: functional, cell-based;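 also: potency for signal decrease marking cytotoxic or nonspecific inhibition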
[3] = target: Paired box protein Pax-8 (Homo sapiens, UniProt Q06710); test: PAX8 transcriptional activity inhibition in RMG-I – RMG-I cells, luciferase, cherry-pick, dose response (AID 687027); type: functional, cell-based;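 also: luciferase reporter driven by Pax8 target thyroperoxidase promoter measured by SteadyGlo luminescence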
Paired box protein Pax-8, sequence (Q06710 whole entry): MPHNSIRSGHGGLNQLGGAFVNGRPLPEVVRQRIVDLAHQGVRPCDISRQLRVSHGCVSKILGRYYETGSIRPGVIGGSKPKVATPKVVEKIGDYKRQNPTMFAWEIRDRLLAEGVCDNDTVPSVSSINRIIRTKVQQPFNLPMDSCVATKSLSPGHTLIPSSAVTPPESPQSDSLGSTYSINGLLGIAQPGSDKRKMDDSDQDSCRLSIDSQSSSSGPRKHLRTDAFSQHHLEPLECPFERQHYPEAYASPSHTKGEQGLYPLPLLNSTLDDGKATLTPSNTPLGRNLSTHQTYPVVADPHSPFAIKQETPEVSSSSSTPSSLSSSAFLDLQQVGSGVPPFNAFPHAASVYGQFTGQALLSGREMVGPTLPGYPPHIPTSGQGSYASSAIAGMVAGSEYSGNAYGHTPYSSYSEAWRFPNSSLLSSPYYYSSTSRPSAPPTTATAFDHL

[4] = alpha-synuclein stem-loop luciferase translation blockers – H4 neuroglioma cells, luminescence, confirmation (AID 1988); type: functional, cell-based
[5] = viability loss in HEK293 cells – cell-based, plate reader, cherry-picked samples, cytotoxicity control, dose response (AID 743446); type: functional
[6] = blockade of melanocortin 4 receptor signaling – cell-based, plate reader, cherry pick, counter-screen for LGR2 antagonist project, dose response (AID 743444); type: functional;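 also: transfected HEK 293 cells stimulated with alpha-MSH peptide; potency of inhibitors of the alpha-MSH evoked signal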
[7] = cells; type: functional, cell-based
[8] = Luminescence-based counterscreen assay for KLF5 inhibitors: dose response cell-based high throughput screening assay to identify cytotoxic compounds using the IEC-6 intestinal epithelial cell line. [Related pubchem assays: 1700 (Primary screen.), 1834 (Confirmation screen.), 1858 (Summary AID.), 1905 (Counterscreen.)]; type: functional
[9] = blockers of bursicon-stimulated LGR2 cAMP reporter – cell-based, HEK293, CRE-luciferase reporter, cherry pick, set 2, dose response (AID 743343); type: functional;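 also: transfected cells were stimulated with diluted bursicon conditioned medium after compound addition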
[10] = alpha-synuclein stem-loop translation blockers – luminescence, H4 neuroglioblastoma cells, dose confirmation, confirmation (AID 2454); type: functional, cell-based;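 also: H4 neuroglioblastoma cells carrying an alpha-synuclein 5'UTR luciferase reporter; potency for inhibition of the luciferase signal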
[11] = Luminescence Cell-Based Dose Response HTS to Identify Inhibitors of 5'UTR Stem-Loop Driven Prion Protein mRNA Translation in H4 Neuroglioblastoma Cells. [Related pubchem assays: 1827 (Project Summary), 1813 (Primary HTS)]; type: functional
[12] = luciferase reporter signal suppression in cells – H4 neuroglioma cells, luminescence, dose response (AID 1990); type: functional, cell-based
[13] = HIV-1 AD8 envelope cell-cell fusion blockers – cherry-pick, dose response (AID 652062); type: functional, cell-based;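 also: luciferase signal from cell-cell fusion driven by HIV-1 clade B AD8 Env; potency is for inhibitors of fusion seen as a drop in luminescence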
[14] = target: T1, Heat shock factor protein 1 (Mus musculus, UniProt P38532); test: decrease of HSF1-responsive luciferase luminescence – cell-based, NIH3T3, dose retest, confirmation (AID 2382); type: functional;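 also: NIH3T3 fibroblasts with HSF1-driven luciferase reporter stressed by proteasome inhibitor MG132; luminescence from HSF1-driven luciferase expression after 8 hours of MG132 stress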
T1 sequence (P38532 whole entry): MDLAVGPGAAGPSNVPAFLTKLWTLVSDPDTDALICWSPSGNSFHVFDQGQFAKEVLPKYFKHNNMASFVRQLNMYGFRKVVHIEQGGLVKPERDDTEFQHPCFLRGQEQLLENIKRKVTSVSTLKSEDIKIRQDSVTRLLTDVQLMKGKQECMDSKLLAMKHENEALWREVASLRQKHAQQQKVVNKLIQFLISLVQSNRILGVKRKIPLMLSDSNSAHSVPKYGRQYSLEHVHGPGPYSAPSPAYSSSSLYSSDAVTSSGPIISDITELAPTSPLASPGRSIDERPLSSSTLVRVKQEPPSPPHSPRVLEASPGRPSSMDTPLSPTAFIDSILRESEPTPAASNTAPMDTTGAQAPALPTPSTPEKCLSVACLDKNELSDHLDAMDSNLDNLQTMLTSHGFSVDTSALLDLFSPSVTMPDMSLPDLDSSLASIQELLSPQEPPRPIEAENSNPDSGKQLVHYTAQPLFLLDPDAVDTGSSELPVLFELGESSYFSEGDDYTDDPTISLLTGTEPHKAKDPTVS

[15] = blockers of HIV-1 ZM109 envelope-driven cell-cell fusion – HeLa effector, CEM target cells, luciferase, cherry-pick, dose response (AID 652058); type: functional, cell-based;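 also: luciferase signal from HIV-1 Env mediated cell-cell fusion of effector and target cells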
[16] = blockers of HIV-1 envelope-mediated cell-cell fusion – cherry-pick, dose response (AID 652057); type: functional, cell-based
[17] = A549 cell cytotoxicity, dose response, cytotoxicity control, plate reader, cherry-pick, antagonist series (AID 743412); type: functional, cell-based
[18] = luciferase reporter signal reduction – luminescence, H4-C neuroglioblastoma cells, dose response (AID 2458); type: functional, cell-based;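 also: H4 neuroglioblastoma cells stably carrying a luciferase reporter gene fusion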
[19] = target: DNA dC->dU-editing enzyme APOBEC-3G (Homo sapiens, UniProt Q9HC16); test: Dose Response confirmation of small molecule APOBEC3G DNA Deaminase Inhibitors via a fluorescence-based single-stranded DNA deaminase assay. [Related pubchem assays (depositor defined):AID493012, AID493028]; type: functional
DNA dC->dU-editing enzyme APOBEC-3G, sequence (Q9HC16 whole entry): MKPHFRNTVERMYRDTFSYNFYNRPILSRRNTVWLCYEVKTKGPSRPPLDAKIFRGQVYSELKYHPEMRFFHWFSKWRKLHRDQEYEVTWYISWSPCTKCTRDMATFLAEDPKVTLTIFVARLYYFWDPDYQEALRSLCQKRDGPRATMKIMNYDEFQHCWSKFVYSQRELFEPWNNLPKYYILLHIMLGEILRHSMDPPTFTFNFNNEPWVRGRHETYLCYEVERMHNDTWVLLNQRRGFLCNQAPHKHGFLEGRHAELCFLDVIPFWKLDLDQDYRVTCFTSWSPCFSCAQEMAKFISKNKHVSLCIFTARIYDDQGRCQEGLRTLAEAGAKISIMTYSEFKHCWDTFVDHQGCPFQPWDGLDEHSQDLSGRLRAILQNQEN

[20] = target: T2, Polyadenylate-binding protein 1 (Homo sapiens, UniProt P11940); test: MLLE binding blockers, Cy5 peptide tracer – biochemical, fluorescence polarization, Cy5-PAM2 peptide, secondary, miRNA deadenylation inhibitor project, dose response (AID 602260); type: functional; conditions: read-out: IC50_Mean
T2 sequence (P11940 whole entry, the tested form may be a part): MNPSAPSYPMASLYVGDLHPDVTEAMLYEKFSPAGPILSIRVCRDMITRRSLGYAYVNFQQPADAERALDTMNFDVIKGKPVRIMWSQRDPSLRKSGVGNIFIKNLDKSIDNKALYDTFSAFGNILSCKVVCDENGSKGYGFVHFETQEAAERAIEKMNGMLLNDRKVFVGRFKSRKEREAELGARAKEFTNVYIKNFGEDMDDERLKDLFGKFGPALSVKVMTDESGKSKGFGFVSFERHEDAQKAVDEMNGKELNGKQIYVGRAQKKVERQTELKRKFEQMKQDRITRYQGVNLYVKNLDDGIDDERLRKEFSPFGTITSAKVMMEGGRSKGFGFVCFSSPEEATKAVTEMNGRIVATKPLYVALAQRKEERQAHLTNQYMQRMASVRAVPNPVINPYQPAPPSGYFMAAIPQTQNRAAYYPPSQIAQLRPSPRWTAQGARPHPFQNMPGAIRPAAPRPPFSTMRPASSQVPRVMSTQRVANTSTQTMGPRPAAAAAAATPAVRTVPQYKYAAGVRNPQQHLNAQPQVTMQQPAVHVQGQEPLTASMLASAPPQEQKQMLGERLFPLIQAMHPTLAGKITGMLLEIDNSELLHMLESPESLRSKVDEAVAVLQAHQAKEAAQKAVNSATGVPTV

[21] = target: T2, Polyadenylate-binding protein 1; test: MLLE domain peptide-binding blockers, IC50 – biochemical, fluorescence polarization, FITC-PAM2 peptide, dose response (AID 602259); type: functional; conditions: read-out: IC50_Mean
[22] = target: Hexokinase HKDC1 (Homo sapiens, UniProt Q2TB90); test: inhibition of HKDC1 glucose phosphorylation – biochemical, W721R variant, dose response (AID 504729); type: functional
Hexokinase HKDC1, sequence (Q2TB90 whole entry): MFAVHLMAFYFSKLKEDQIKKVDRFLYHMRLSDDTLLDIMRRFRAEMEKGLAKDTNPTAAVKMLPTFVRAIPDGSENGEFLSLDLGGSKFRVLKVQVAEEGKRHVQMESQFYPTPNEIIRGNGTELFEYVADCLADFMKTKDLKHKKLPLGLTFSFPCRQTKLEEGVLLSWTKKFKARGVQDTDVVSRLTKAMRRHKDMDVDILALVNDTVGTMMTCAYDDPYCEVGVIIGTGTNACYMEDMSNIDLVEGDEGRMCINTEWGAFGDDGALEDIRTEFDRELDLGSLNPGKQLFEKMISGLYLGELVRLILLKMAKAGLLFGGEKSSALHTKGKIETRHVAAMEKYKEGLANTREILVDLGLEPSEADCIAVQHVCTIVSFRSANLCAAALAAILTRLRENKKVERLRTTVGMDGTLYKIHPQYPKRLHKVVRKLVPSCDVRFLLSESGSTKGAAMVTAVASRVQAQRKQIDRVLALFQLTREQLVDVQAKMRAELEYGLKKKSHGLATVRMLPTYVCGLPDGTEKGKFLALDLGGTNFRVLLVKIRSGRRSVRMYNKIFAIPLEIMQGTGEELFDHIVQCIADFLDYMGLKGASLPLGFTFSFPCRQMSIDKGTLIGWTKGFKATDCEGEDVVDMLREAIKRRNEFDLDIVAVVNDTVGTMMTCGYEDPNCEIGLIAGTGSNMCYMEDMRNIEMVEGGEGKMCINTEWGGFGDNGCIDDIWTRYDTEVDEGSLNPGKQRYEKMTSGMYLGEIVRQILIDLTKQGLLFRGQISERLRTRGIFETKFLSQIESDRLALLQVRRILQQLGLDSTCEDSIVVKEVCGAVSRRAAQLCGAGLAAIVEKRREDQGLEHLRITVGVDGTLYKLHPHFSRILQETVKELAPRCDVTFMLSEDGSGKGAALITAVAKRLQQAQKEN

[23] = target: DNA (cytosine-5)-methyltransferase 1 (Homo sapiens, UniProt P26358); test: inhibition of DNA methylation by DNMT1 – biochemical, fluorescent molecular beacon, confirmation (AID 602386); type: functional
[24] = target: T3, Kappa-type opioid receptor (Homo sapiens, UniProt P41145); type: functional
T3 sequence (P41145 whole entry): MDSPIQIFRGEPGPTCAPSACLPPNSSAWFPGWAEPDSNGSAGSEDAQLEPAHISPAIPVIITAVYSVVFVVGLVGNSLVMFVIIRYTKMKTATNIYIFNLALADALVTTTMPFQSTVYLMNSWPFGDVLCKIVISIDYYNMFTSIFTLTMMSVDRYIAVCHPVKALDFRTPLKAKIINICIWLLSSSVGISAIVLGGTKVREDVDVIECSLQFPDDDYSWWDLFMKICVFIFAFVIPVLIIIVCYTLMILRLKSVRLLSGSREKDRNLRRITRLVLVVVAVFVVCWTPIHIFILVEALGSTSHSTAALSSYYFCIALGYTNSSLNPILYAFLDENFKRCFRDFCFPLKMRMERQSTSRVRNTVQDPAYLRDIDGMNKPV

[25] = target: Beta-galactosidase (Escherichia coli, UniProt Q8VNN2); type: functional
Beta-galactosidase, sequence (Q8VNN2 whole entry): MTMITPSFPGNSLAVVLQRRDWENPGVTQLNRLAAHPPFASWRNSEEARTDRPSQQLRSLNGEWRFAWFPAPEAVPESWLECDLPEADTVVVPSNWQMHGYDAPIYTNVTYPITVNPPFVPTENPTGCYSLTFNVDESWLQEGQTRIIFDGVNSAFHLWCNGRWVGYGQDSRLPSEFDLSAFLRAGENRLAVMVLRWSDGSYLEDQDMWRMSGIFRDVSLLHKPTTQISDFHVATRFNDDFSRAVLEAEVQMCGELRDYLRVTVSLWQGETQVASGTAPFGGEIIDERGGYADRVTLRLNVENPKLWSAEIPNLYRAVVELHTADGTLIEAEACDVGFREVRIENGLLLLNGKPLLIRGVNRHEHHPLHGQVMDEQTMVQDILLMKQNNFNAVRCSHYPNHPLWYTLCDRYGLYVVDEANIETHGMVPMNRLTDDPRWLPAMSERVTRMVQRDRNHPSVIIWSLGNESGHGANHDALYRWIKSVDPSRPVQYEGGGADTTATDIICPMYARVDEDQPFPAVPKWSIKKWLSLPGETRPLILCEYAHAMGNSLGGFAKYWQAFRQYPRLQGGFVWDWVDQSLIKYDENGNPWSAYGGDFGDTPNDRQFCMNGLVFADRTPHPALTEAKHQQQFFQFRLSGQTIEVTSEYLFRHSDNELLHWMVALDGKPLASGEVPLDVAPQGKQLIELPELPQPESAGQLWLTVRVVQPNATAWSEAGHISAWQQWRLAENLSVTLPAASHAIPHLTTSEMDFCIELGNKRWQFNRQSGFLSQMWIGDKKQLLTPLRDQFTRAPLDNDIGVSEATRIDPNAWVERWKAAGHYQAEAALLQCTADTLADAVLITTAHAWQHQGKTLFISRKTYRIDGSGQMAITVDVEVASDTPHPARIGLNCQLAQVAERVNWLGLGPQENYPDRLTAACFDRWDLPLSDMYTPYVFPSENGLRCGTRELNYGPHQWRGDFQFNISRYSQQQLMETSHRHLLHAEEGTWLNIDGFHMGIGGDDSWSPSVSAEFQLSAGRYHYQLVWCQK

[26] = NIH3T3 cell viability loss – ATP luminescence, mouse fibroblasts, counter-screen, dose response (AID 2010); type: functional, cell-based;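 also: cells exposed to compound for about 90 hours before reading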
[27] = Trypanosoma cruzi growth suppression in host cells – NIH3T3 host cells, beta-gal luminescence, confirmation (AID 2044); type: functional, cell-based;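 also: intracellular parasites grown in NIH/3T3 mouse fibroblasts as host cells; luminescent beta-galactosidase reporter signal from transgenic T. cruzi replicating inside host cells; inhibitors lower the luminescence signal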
[28] = target: T3, Kappa-type opioid receptor; type: functional; remark: listed apart in the source
[29] = target: Eukaryotic translation initiation factor 4E (Mus musculus, UniProt P63073); test: blockers of eIF4G binding by eIF4E – biochemical, TR-FRET, dose response (AID 855); type: functional;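 also: potency for disrupting eIF4E binding to eIF4GI seen as loss of FRET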
Eukaryotic translation initiation factor 4E, sequence (P63073 whole entry): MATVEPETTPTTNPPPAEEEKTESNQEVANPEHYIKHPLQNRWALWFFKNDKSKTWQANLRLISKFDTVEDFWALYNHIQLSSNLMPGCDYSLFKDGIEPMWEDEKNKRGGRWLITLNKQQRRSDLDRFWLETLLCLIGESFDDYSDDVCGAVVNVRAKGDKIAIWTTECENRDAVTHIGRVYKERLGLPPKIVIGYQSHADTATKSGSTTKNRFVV

[30] = target: T4, Mannose-6-phosphate isomerase (Homo sapiens, UniProt P34949); test: MPI inhibition at elevated mannose 6-phosphate – biochemical, fluorescence intensity, high mannose 6-phosphate, primary screen (AID 1220)
T4 sequence (P34949 whole entry): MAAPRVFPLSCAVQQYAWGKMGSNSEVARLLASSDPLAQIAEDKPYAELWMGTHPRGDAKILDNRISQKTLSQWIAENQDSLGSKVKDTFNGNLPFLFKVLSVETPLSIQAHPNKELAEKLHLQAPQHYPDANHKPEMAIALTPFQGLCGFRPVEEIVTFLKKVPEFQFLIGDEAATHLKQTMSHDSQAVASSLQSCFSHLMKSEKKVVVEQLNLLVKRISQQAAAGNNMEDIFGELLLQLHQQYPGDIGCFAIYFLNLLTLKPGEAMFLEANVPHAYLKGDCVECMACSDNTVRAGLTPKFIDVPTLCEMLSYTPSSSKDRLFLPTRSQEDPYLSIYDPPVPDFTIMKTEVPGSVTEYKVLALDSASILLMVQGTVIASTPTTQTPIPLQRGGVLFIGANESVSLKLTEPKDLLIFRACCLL

[31] = test system: INS1; test: INS-1E survival protection against cytokine death – cell-based, luminescence, retest, dose response (AID 449756); type: functional; conditions: Rattus norvegicus;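 also: cell death triggered by IL-1 beta plus TNF-alpha plus IFN-gamma mixture; protective hits raise ATP signal compared with cytokine alone wells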
[32] = target: Induced myeloid leukemia cell differentiation protein Mcl-1 (Homo sapiens, UniProt Q07820); type: functional
[33] = target: Cytochrome P450 3A4 (Homo sapiens, UniProt P08684); conditions: Potency;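 also: confirmatory qHTS run detecting inhibitors and substrates of CYP3A4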
Cytochrome P450 3A4, sequence (P08684 whole entry): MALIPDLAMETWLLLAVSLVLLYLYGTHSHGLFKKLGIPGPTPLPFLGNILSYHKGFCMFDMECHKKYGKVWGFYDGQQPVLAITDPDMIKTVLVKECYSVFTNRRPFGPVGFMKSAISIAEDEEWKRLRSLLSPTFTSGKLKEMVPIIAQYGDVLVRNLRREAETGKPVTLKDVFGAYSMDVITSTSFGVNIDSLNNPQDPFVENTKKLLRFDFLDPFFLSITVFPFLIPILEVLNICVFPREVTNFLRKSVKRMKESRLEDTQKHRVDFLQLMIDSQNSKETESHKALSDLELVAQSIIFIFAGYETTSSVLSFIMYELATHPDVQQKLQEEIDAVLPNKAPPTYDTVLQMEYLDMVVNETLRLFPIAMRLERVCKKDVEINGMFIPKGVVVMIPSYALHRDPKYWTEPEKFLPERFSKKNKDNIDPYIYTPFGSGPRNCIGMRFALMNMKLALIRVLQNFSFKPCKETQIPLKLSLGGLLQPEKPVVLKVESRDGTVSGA

[34] = target: Cytochrome P450 2C9 (Homo sapiens, UniProt P11712); conditions: Potency
Cytochrome P450 2C9, sequence (P11712 whole entry): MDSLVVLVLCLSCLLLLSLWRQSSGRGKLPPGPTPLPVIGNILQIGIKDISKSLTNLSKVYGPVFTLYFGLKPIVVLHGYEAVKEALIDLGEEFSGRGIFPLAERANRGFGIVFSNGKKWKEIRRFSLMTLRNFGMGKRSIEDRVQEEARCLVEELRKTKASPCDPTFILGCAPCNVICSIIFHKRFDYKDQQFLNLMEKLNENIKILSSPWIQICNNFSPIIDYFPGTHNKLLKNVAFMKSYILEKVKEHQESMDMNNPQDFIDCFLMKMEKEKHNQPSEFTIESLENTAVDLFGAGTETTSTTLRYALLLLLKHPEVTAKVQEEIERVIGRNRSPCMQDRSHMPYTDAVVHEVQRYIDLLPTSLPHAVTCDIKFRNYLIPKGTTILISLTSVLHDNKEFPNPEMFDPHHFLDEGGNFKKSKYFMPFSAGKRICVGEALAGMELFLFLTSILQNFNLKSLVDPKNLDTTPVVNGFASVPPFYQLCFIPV

Q: For `O=C(O)c1cccc(COc2ccc3c(c2)CCC3)c1`, which AC50 [1] is on record?
A: 1.37 µM (active)

Q: What about the AC50 [2] of the same molecule?
A: 1.68 µM (active)

Q: And the AC50 [3]?
A: 3.79 µM (active)

Q: What about the EC50 [4] of the same molecule?
A: < 0.1 µM (active)

Q: What about the AC50 [5] of the same molecule?
A: > 52 µM (inactive)

Q: And the AC50 [6]?
A: 0.383 µM (active)

Q: And the EC50 [7]?
A: 0.538 µM (active)

Q: And the IC50 [8]?
A: > 39.8 µM (not active)

Q: And the AC50 [9]?
A: 0.326 µM (active)

Q: What about the EC50 [10] of the same molecule?
A: 0.197 µM (active)

Q: What about the EC50 [11] of the same molecule?
A: < 0.1 µM (active)

Q: And the EC50 [12]?
A: 0.212 µM (active)

Q: And the AC50 [13]?
A: 1.47 µM (active)

Q: And the EC50 [14]?
A: 0.376 µM (inconclusive)

Q: What about the AC50 [15] of the same molecule?
A: 5.09 µM (active)

Q: And the AC50 [16]?
A: 0.684 µM (active)

Q: And the AC50 [17]?
A: > 52 µM (inactive)

Q: What about the EC50 [18] of the same molecule?
A: 0.233 µM (active)

Q: With `CCOC(=O)c1ccc(NC(=O)CC2Sc3ncnn3C2=O)cc1` (centres undefined) as the molecule, how does the IC50 [19] read?
A: 61.8 µM (active)

Q: And the IC50 [20]?
A: > 66 µM (inactive)

Q: And the IC50 [21]?
A: > 66 µM (inactive)

Q: Which results are given for `Cc1ccc(N2C(=O)NC(=O)/C(=C\c3cc(C)n(-c4sc5c(c4C#N)CCCC5)c3C)C2=O)cc1`?
A: IC50 [22]: 14.1 µM (active); IC50 [23]: 11.1 µM (active)

Q: For `Cc1ccccc1NC(=O)c1ccc(Nc2c([N+](=O)[O-])cc([N+](=O)[O-])c3ccccc23)cc1`, which IC50 [24] is on record?
A: > 32 µM

Q: And the EC50 [25]?
A: 11.3 µM (active)

Q: What about the EC50 [26] of the same molecule?
A: > 60 µM (inconclusive)

Q: And the EC50 [27]?
A: 0.937 µM (active)

Q: What about the IC50 [28] of the same molecule?
A: 9.63 µM (active)

Q: Which IC50 [29] does the source give for `CCN1c2ccccc2N(C)C1(C)c1ccccc1` (centres undefined) here?
A: 49.4 µM (inactive)

Q: What about the IC50 [30] of the same molecule?
A: 13.7 µM (active)

Q: And the AC50 [31]?
A: 2.14 µM (active)

Q: And the IC50 [32]?
A: 9.19 µM (active)

Q: For `CC1CCC2C(=O)N3C(CCC(C)C3c3ccccc3Br)C(=O)N2C1c1ccc(C#CCN(C)C)cc1` (centres undefined), which AC50 [33] is on record?
A: 3.16 µM (inconclusive)

Q: What about the AC50 [34] of the same molecule?
A: 3.98 µM (inconclusive)
